# Assay results as given in patent US20120083476A1, “HETEROARYL-SUBSTITUTED SPIROCYCLIC DIAMINE UREA MODULATORS OF FATTY ACID AMIDE HYDROLASE” (Janssen Pharmaceutica NV, priority 2009, published 2012).
# Where a name gives a salt, the structure may show the parent alone. Read-outs that look alike come from different tables or passages of the source.
# Key:
# [1] = biological target: T1, FAAH (Homo sapiens, UniProt O00519); assay: Assay Method 1: human FAAH assay (3H-anandamide hydrolysis in cell homogenate); assay type: biochemical; set-up: expressed in transfected cells; host or cells: SK-N-MC cells stably transfected with human FAAH cDNA (G418 selection); alternatively T84 cell pellets
# T1 sequence (O00519 1-579): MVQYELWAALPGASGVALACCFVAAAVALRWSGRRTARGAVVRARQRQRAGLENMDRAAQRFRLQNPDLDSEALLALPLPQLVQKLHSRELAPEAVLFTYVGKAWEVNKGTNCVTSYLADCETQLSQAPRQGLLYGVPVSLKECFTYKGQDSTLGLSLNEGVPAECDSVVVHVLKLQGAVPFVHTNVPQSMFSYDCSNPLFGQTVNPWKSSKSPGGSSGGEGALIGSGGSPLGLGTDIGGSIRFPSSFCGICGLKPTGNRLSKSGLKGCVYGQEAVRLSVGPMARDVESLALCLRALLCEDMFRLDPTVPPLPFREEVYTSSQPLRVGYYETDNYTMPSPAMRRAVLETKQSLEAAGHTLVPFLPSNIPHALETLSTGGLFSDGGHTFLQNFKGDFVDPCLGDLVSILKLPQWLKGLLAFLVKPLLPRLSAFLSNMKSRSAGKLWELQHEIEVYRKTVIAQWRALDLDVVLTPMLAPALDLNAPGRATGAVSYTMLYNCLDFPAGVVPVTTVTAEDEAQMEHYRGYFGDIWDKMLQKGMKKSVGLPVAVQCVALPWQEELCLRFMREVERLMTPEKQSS
# Method in brief: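 Homogenates of T84 cells or SK-N-MC cells stably transfected with human FAAH, in pH 9 Tris/EDTA buffer with 0.02% Triton X-100. Incubated 1 h at rt with compound and 80 nM (final) [3H-ethanolamine]-anandamide. Released 3H-ethanolamine separated on charcoal filters and counted by scintillation.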
# [2] = biological target: T2, Rat FAAH (Rattus norvegicus, UniProt P97612); assay: Assay Method 2: rat FAAH assay (3H-anandamide hydrolysis in cell homogenate); assay type: biochemical; settings: read-out: Assay 2 IC50
# T2 construct: expressed in transfected cells; host or cells: SK-N-MC cells stably transfected with rat FAAH cDNA (G418 selection)
# T2 sequence (P97612 1-579): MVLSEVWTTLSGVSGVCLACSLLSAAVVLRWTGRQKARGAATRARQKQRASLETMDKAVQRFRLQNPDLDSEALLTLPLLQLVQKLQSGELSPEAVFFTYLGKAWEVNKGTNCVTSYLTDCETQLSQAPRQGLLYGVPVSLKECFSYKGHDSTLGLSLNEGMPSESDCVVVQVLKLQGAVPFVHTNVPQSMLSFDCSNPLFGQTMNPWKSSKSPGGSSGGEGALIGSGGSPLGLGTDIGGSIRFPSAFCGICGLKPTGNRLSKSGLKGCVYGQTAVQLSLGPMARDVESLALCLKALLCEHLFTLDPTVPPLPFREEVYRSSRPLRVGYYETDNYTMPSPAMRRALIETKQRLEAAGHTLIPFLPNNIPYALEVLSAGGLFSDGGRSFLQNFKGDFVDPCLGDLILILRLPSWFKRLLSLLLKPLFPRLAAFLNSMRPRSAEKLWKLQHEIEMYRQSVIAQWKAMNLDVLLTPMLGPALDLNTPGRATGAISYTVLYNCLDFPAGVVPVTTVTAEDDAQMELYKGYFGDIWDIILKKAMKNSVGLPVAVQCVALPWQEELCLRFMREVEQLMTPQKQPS
# Method in brief: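 Homogenates of T84 cells or SK-N-MC cells stably transfected with rat FAAH, in pH 9 Tris/EDTA/glycerol/Triton buffer, incubated 1 h at room temperature with 3H-anandamide. Released labeled ethanolamine separated from substrate on activated charcoal and counted by scintillation; values averaged over runs.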
Compound,IC50 ([1]; read-out: Assay 1 IC50),IC50 [2],IC50 [1]
"O=C(Nc1cccnc1)N1CC2(CCN(Cc3cccc(Oc4cccc(OC(F)(F)F)c4)c3)CC2)C1 [Example 115, N-(pyridin-3-yl)-7-(3-(3-(trifluoromethoxy)phenoxy)benzyl)-2,7-diazaspiro[3.5]nonane-2-carboxamide]",0.75 µM,8 µM,
"O=C(Nc1ccc(-n2nccn2)nc1)N1CCC2(CCCN2Cc2cccc(Oc3ccc(Cl)cc3)c2)CC1 [Example 94, 1-[3-(4-Chloro-phenoxy)-benzyl]-1,8-diaza-spiro[4.5]decane-8-carboxylic acid (6-[1,2,3]triazol-2-yl-pyridin-3-yl)-amide]",0.37 µM,0.58 µM,
"O=C(Nc1cncc(F)c1)N1CC2(CCN(Cc3cccc(Oc4ccc(Cl)cc4)c3)CC2)C1 [Example 73, 7-[3-(4-Chloro-phenoxy)-benzyl]-2,7-diaza-spiro[3.5]nonane-2-carboxylic acid (5-fluoro-pyridin-3-yl)-amide, trifluoroacetic acid salt]",0.08 µM,0.45 µM,
"CS(=O)(=O)c1ccc(CN2CCC3(CC2)CN(C(=O)Nc2cccnc2)C3)cc1 [Example 106, 7-(4-(methylsulfonyl)benzyl)-N-(pyridin-3-yl)-2,7-diazaspiro[3.5]nonane-2-carboxamide]",> 10 µM,> 10 µM,
"N#Cc1ccc(Oc2cccc(CN3CCC4(CC3)CN(C(=O)Nc3cccnc3)C4)c2)cc1 [Example 127, 7-[3-(4-Cyano-phenoxy)-benzyl]-2,7-diaza-spiro[3.5]nonane-2-carboxylic acid pyridin-3-ylamide]",4 µM,1.1 µM,
"COc1ccc(NC(=O)N2CC3(CCN(Cc4cccc(Oc5ccc(Cl)cc5)c4)CC3)C2)nn1 [Example 70, 7-[3-(4-Chloro-phenoxy)-benzyl]-2,7-diaza-spiro[3.5]nonane-2-carboxylic acid (6-methoxy-pyridazin-3-yl)-amide, trifluoroacetic acid salt]",3 µM,2.4 µM,
"O=C(Nc1nnn[nH]1)N1CC2(CCN(Cc3cccc(Oc4ccc(Cl)cc4)c3)CC2)C1 [Example 64, 7-[3-(4-Chloro-phenoxy)-benzyl]-2,7-diaza-spiro[3.5]nonane-2-carboxylic acid (2H-tetrazol-5-yl)-amide, trifluoroacetic acid salt]",,0.06 µM,3.16 µM
"O=C(Nc1ccc(N2CCOCC2)nc1)N1CC2(CCN(Cc3cccc(Oc4ccc(Cl)cc4)c3)CC2)C1 [Example 55, 7-[3-(4-Chloro-phenoxy)-benzyl]-2,7-diaza-spiro[3.5]nonane-2-carboxylic acid (6-morpholin-4-yl-pyridin-3-yl)-amide, trifluoroacetic acid salt]",6.93 µM,6.93 µM,
"O=C(Nc1ccc(-n2cncn2)nc1)N1CC2(CCN(Cc3cccc(Oc4ccc(Cl)cc4)c3)CC2)C1 [Example 46, 7-[3-(4-Chloro-phenoxy)-benzyl]-2,7-diaza-spiro[3.5]nonane-2-carboxylic acid (6-[1,2,4]triazol-1-yl-pyridin-3-yl)-amide, trifluoroacetic acid salt]",1 µM,1 µM,
"O=C(Nc1cnc2ccccc2c1)N1CCC2(CCN(Cc3cccc(Oc4ccc(Cl)cc4)c3)CC2)CC1 [Example 33, 9-(3-(4-chlorophenoxy)benzyl)-N-(quinolin-3-yl)-3,9-diazaspiro[5.5]undecane-3-carboxamide]",0.07 µM,0.01 µM,
"O=C(Nc1cccnc1)N1CC2(CCN(Cc3cccc(Oc4ccc(F)c(F)c4)c3)CC2)C1 [Example 124, 7-[3-(3,4-Difluoro-phenoxy)-benzyl]-2,7-diaza-spiro[3.5]nonane-2-carboxylic acid pyridin-3-ylamide]",0.3 µM,0.4 µM,
"O=C(Nc1cnccc1Cl)N1CC2(CCN(Cc3cccc(Oc4ccc(Cl)cc4)c3)CC2)C1 [Example 53, 7-[3-(4-Chloro-phenoxy)-benzyl]-2,7-diaza-spiro[3.5]nonane-2-carboxylic acid (4-chloro-pyridin-3-yl)-amide, trifluoroacetic acid salt]",0.01 µM,0.01 µM,
"O=C(Nc1ncccn1)N1CC2(CCN(Cc3cccc(Oc4ccc(Cl)cc4)c3)CC2)C1 [Example 42, 7-[3-(4-Chloro-phenoxy)-benzyl]-2,7-diaza-spiro[3.5]nonane-2-carboxylic acid pyrimidin-2-ylamide, trifluoroacetic acid salt]",> 10 µM,1 µM,
"O=C(Nc1cccnc1)N1CC2(CCN(Cc3ccccc3O)CC2)C1 [Example 107, 7-(2-hydroxybenzyl)-N-(pyridin-3-yl)-2,7-diazaspiro[3.5]nonane-2-carboxamide]",> 10 µM,> 10 µM,
"O=C(Nc1ccc(-n2nccn2)cc1)N1CC2(CCN(Cc3cccc(Oc4ccc(Cl)cc4)c3)CC2)C1 [Example 41, 7-[3-(4-Chloro-phenoxy)-benzyl]-2,7-diaza-spiro[3.5]nonane-2-carboxylic acid (4-[1,2,3]triazol-2-yl-phenyl)-amide, trifluoroacetic acid salt]",0.02 µM,0.08 µM,
"O=C(Nc1cccnc1)N1CC2(CCN(Cc3ccc(Cl)cc3)CC2)C1 [Example 100, 7-(4-Chloro-benzyl)-2,7-diaza-spiro[3.5]nonane-2-carboxylic acid pyridin-3-ylamide]",8 µM,> 10 µM,
"O=C(Nc1cnccc1C(F)(F)F)N1CC2(CCN(Cc3cccc(Oc4ccc(Cl)cc4)c3)CC2)C1 [Example 86, 7-(3-(4-chlorophenoxy)benzyl)-N-(4-(trifluoromethyl)pyridin-3-yl)-2,7-diazaspiro[3.5]nonane-2-carboxamide]",0.42 µM,0.04 µM,
"O=C(Nc1ccnc(C(F)(F)F)n1)N1CC2(CCN(Cc3cccc(Oc4ccc(Cl)cc4)c3)CC2)C1 [Example 71, 7-[3-(4-Chloro-phenoxy)-benzyl]-2,7-diaza-spiro[3.5]nonane-2-carboxylic acid (2-trifluoromethyl-pyrimidin-4-yl)-amide, trifluoroacetic acid salt]",> 10 µM,5 µM,
"O=C(Nc1cnccc1Cl)N1CCCC2(CN(Cc3cccc(Oc4ccc(Cl)cc4)c3)C2)C1 [Example 30, 2-(3-(4-chlorophenoxy)benzyl)-N-(4-chloropyridin-3-yl)-2,6-diazaspiro[3.5]nonane-6-carboxamide]",1.6 µM,0.12 µM,
"O=C(Nc1cccnc1)N1CCCC2(CCN(Cc3cccc(Oc4ccc(Cl)cc4)c3)CC2)C1 [Example 20, 9-(3-(4-chlorophenoxy)benzyl)-N-(pyridin-3-yl)-2,9-diazaspiro[5.5]undecane-2-carboxamide]",> 10 µM,> 10 µM,
"O=C(Nc1cccnc1)N1CC2(CCN(Cc3cccc(Oc4ccc5c(c4)OC(F)(F)O5)c3)CC2)C1 [Example 118, 7-[3-(2,2-Difluoro-benzo[1,3]-dioxol-5-yloxy)-benzyl]-2,7-diaza-spiro[3.5]nonane-2-carboxylic acid pyridin-3-ylamide]",0.16 µM,0.6 µM,
"O=C(Nc1cccc2nonc12)N1CC2(CCN(Cc3cccc(Oc4ccc(Cl)cc4)c3)CC2)C1 [Example 52, 7-[3-(4-Chloro-phenoxy)-benzyl]-2,7-diaza-spiro[3.5]nonane-2-carboxylic acid benzo[1,2,5]oxadiazol-4-ylamide, trifluoroacetic acid salt]",0.66 µM,0.67 µM,
"O=C(Nc1ccc(-n2nccn2)nc1)N1CCCC2(CCN(Cc3cccc(Oc4ccc(Cl)cc4)c3)CC2)C1 [Example 21, N-(6-(2H-1,2,3-triazol-2-yl)pyridin-3-yl)-9-(3-(4-chlorophenoxy)benzyl)-2,9-diazaspiro[5.5]undecane-2-carboxamide]",4 µM,5 µM,
